Reference: ChEMBL document CHEMBL4476883, “Hydroxy formamide derivatives and their use” (2017)

How the values were obtained:
Tolloid-like protein 2 = molecular target: T1, Tolloid-like protein 2 (Homo sapiens, UniProt Q9Y6L7); test: Inhibition of C-terminal Avi-6x-His epitope tagged and N-terminal human RAGE signal sequence tagged recombinant human TLL2 (26 to 1015 amino acids) expressed in CHOE1A cells incubated for 60 mins with promyostatin peptide substrate by FRET based assay; assay type: cell-based
T1 sequence (Q9Y6L7 whole entry): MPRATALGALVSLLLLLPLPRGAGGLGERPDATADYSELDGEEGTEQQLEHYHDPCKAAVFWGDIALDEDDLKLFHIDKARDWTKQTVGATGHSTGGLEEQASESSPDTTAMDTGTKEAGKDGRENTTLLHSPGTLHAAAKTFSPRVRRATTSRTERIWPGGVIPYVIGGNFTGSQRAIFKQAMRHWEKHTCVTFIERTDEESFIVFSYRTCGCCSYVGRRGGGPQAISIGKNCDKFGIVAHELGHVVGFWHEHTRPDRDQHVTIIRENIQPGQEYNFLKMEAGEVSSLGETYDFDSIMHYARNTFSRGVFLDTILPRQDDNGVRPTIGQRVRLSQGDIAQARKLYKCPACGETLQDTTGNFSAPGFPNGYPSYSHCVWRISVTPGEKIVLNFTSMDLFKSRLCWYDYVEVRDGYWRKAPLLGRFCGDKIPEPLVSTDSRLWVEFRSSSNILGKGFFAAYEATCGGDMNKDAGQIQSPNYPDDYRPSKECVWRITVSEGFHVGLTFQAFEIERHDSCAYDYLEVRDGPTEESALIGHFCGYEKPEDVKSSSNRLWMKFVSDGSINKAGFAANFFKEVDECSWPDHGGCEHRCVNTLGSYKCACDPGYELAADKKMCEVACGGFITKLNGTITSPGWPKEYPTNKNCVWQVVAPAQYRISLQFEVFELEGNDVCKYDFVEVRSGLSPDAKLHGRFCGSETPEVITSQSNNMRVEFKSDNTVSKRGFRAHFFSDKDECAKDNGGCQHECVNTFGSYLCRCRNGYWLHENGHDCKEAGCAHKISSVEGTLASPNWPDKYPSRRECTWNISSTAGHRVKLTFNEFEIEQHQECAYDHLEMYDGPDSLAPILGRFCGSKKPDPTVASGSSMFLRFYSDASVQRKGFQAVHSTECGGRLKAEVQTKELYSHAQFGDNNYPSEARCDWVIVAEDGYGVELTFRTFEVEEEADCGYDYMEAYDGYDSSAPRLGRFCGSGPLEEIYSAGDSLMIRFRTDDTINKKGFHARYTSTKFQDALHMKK

[1] = molecular target: T2, Bone morphogenetic protein 1 (Homo sapiens, UniProt P13497); test: Inhibition of C-terminal FLAG-6x-His epitope tagged and N-terminal human RAGE signal sequence tagged human BMP1 (23 to 721 amino acids) expressed in CHO-E1A cells pre-incubated for 10 mins before promyostatin peptide substrate addition and measured after 30 mins using 50 nM BMP1 by FRET based assay; assay type: cell-based
T2 sequence (P13497 whole entry): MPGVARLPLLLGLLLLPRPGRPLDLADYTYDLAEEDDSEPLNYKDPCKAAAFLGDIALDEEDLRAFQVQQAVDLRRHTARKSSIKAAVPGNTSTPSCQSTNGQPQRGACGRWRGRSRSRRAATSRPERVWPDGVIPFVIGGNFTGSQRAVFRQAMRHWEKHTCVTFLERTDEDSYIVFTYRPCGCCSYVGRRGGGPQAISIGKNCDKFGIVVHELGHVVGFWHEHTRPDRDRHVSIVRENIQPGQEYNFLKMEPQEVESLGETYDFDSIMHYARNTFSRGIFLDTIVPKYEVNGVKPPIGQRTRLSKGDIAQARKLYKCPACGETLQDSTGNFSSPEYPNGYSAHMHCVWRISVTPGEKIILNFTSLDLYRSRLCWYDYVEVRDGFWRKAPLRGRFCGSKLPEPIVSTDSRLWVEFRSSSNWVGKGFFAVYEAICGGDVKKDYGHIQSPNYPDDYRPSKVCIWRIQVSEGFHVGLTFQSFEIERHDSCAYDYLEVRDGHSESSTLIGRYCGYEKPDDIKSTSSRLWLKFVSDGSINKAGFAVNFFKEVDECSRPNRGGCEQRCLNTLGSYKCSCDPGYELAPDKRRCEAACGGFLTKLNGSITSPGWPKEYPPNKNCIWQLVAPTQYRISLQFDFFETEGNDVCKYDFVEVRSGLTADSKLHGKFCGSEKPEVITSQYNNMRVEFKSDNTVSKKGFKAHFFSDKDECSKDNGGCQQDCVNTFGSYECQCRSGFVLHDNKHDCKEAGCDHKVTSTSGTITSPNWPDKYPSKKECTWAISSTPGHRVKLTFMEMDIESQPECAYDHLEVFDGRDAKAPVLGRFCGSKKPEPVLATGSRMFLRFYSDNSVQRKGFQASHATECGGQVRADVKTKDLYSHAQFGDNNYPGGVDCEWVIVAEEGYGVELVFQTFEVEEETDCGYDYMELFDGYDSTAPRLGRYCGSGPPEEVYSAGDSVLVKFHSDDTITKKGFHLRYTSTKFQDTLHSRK

[2] = Reduction in PICP levels in human cardiac fibroblasts incubated for 24 to 48 hrs by ELISA; assay type: functional
Tolloid-like protein 1 = Tolloid-like protein 1 (Homo sapiens, UniProt O43897, I156V/N221S/V284A); test: Inhibition of recombinant human TLL1 I156V/N221S/V284A mutant expressed in CHOE1A cells pre-incubated for 10 mins before promyostatin peptide substrate addition and measured after 60 mins by FRET based assay; assay type: cell-based
Tolloid-like protein 1, sequence (O43897 148-1013 I156V/N221S/V284A limits assumed): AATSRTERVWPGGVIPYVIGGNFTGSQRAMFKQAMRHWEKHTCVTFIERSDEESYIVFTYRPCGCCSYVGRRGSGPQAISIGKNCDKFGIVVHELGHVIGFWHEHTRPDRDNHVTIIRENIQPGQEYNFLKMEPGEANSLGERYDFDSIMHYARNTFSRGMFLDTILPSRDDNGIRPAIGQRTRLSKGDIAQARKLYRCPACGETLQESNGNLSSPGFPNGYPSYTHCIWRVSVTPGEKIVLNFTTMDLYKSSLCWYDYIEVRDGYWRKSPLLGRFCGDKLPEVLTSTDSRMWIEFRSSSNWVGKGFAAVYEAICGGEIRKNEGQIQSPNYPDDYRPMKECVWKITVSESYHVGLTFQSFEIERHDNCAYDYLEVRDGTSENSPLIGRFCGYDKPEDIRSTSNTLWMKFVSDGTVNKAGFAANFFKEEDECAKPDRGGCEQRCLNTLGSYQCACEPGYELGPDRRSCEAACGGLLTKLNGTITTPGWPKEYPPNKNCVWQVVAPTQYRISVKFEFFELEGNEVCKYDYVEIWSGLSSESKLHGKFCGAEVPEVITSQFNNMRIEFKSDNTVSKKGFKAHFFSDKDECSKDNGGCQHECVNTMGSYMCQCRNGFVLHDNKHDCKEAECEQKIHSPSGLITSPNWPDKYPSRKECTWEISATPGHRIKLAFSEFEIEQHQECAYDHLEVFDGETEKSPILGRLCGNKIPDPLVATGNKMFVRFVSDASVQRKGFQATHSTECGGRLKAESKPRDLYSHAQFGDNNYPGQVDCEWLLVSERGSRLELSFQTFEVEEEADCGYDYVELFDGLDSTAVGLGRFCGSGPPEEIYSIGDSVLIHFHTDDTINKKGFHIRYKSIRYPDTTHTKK

[3] = molecular target: T2, Bone morphogenetic protein 1; test: Inhibition of C-terminal FLAG-6x-His epitope tagged and N-terminal human RAGE signal sequence tagged human BMP1 (23 to 721 amino acids) expressed in CHO-E1A cells pre-incubated for 10 mins before promyostatin peptide substrate addition and measured after 60 mins using 0.5 nM BMP1 by FRET based assay; assay type: cell-based

SMILES | IC50 (Tolloid-like protein 2) | IC50 [1] | IC50 [2] | IC50 (Tolloid-like protein 1) | IC50 [3]
CCCCC[C@@H](C(=O)NCNC(=O)c1cccc(-c2ccc(CC(=O)O)c(OCC)c2)n1)[C@@H](CC)N(O)C=O | < 631 nM | < 251 nM | < 20000 nM | < 398 nM | < 126 nM
CCCCC[C@@H](C(=O)NCNC(=O)c1cccc(-c2ccc(C(=O)O)c(OCC)c2)n1)[C@@H](CC)N(O)C=O | < 631 nM | < 251 nM | < 20000 nM | < 398 nM | < 126 nM
CCCCC[C@@H](C(=O)NCNC(=O)c1cccc(-c2ccc(C3(C(=O)O)CC3)cc2)n1)[C@@H](CC)N(O)C=O | < 631 nM | < 251 nM | < 20000 nM | < 398 nM | < 126 nM
CCCCC[C@H](CN(O)C=O)C(=O)NCNC(=O)c1cccc(-c2ccc(F)c(OC)c2)n1 | < 631 nM | < 251 nM | < 20000 nM | < 398 nM | < 126 nM
O=CN(O)C[C@@H](CCc1ccccc1)C(=O)NCNC(=O)c1cccc(-c2ccccc2)n1 | < 631 nM | < 251 nM | < 20000 nM | < 398 nM | < 126 nM
CCCCC[C@@H](C(=O)NCNC(=O)c1cccc(-c2ccc(C(=O)O)c(OCC)c2)c1)[C@@H](CC)N(O)C=O | < 631 nM | < 251 nM | < 20000 nM | < 398 nM | < 126 nM
CCCCC[C@H](CN(O)C=O)C(=O)NCNC(=O)c1cc(C(F)(F)F)cc(-c2ccccc2)n1 | < 631 nM | < 251 nM | < 20000 nM | < 398 nM | < 126 nM
CCCCC[C@H](CN(O)C=O)C(=O)NCNC(=O)c1cccc(Oc2ccc(OC)nc2)c1 | < 631 nM | < 251 nM | < 20000 nM | < 398 nM | < 126 nM
CCCCC[C@H](CN(O)C=O)C(=O)NCNC(=O)c1cccc(-c2cccnc2)n1 | < 631 nM | < 251 nM | < 20000 nM | < 398 nM | < 126 nM
CCCCC[C@H](CN(O)C=O)C(=O)NCNC(=O)c1cccc(-c2cccc(OC)c2)c1F | < 631 nM | < 251 nM | < 20000 nM | < 398 nM | < 126 nM
CCCCC[C@H](CN(O)C=O)C(=O)NCNC(=O)c1cccc(-c2ccccc2)n1 | < 631 nM | < 251 nM | < 20000 nM | < 398 nM | < 126 nM
CCCCC[C@H](CN(O)C=O)C(=O)NCNC(=O)c1cccc(-c2cccc(OC)n2)n1 | < 631 nM | < 251 nM | < 20000 nM | < 398 nM | < 126 nM
CCCCC[C@H](CN(O)C=O)C(=O)NCNC(=O)c1cccc(-c2cccc(OC)c2)n1 | < 631 nM | < 251 nM | < 20000 nM | < 398 nM | < 126 nM
CCCCC[C@@H](C(=O)NCNC(=O)c1cccc(-c2ccc(OC)c(C(=O)O)c2)n1)[C@@H](CC)N(O)C=O | < 631 nM | < 251 nM | < 20000 nM | < 398 nM | < 126 nM
CCCCC[C@@H](C(=O)NCNC(=O)c1cccc(-c2ccc(F)c(C(=O)O)c2)n1)[C@@H](CC)N(O)C=O | < 631 nM | < 251 nM | < 20000 nM | < 398 nM | < 126 nM
CCCCC[C@H](CN(O)C=O)C(=O)NCNC(=O)c1cccc(-c2ccc(C(F)(F)F)cc2)n1 | < 631 nM | < 251 nM | < 20000 nM | < 398 nM | < 126 nM
CCCCC[C@@H](C(=O)NCNC(=O)c1cccc(-c2ccc(C(C)(C)C(=O)O)cc2)n1)[C@@H](CC)N(O)C=O | < 631 nM | < 251 nM | < 20000 nM | < 398 nM | < 126 nM
CCCCC[C@H](CN(O)C=O)C(=O)NCNC(=O)c1cccc(-c2cccc(OC)c2F)n1 | < 631 nM | < 251 nM | < 20000 nM | < 398 nM | < 126 nM
CCCCC[C@H](CN(O)C=O)C(=O)NCNC(=O)c1ccnc(-c2ccccc2)n1 | < 631 nM | < 251 nM | < 20000 nM | < 398 nM | < 126 nM
CCCCC[C@H](CN(O)C=O)C(=O)NCNC(=O)c1cccc(-c2cc(OCC)cc(C(=O)O)c2)n1 | < 631 nM | < 251 nM | < 20000 nM | < 398 nM | < 126 nM
CCCCC[C@@H](C(=O)NCNC(=O)c1cccc(-c2ccc(P(=O)(O)O)c(OCC)c2)n1)[C@@H](CC)N(O)C=O | < 631 nM | < 251 nM | < 20000 nM | < 398 nM | < 126 nM
CCCCC[C@H](CN(O)C=O)C(=O)NCNC(=O)c1cccc(-c2ccc(F)cc2)n1 | < 631 nM | < 251 nM | < 20000 nM | < 398 nM | < 126 nM
CCCCC[C@@H](C(=O)NCNC(=O)c1cccc(-c2ccc(CC(=O)O)cc2)n1)[C@@H](CC)N(O)C=O | < 631 nM | < 251 nM | < 20000 nM | < 398 nM | < 126 nM
CCCCC[C@@H](C(=O)NCNC(=O)c1cccc(-c2cccc(C(=O)O)c2C)n1)[C@@H](CC)N(O)C=O | < 631 nM | < 251 nM | < 20000 nM | < 398 nM | < 126 nM
CCCCC[C@H](CN(O)C=O)C(=O)NCNC(=O)c1cccc(-c2ccccc2)c1 | < 631 nM | < 251 nM | < 20000 nM | < 398 nM | < 126 nM
CCCCC[C@H](CN(O)C=O)C(=O)NCNC(=O)c1cccc(-c2ccc(OC(F)(F)F)cc2)n1 | < 631 nM | < 251 nM | < 20000 nM | < 398 nM | < 126 nM
CCCCC[C@H](CN(O)C=O)C(=O)NCNC(=O)c1ccc(F)c(-c2ccccc2)n1 | < 631 nM | < 251 nM | < 20000 nM | < 398 nM | < 126 nM
CCCCC[C@H](CN(O)C=O)C(=O)NCNC(=O)c1cncc(-c2ccccc2)n1 | < 631 nM | < 251 nM | < 20000 nM | < 398 nM | < 126 nM
CCCCC[C@H](CN(O)C=O)C(=O)NCNC(=O)c1cccc(-c2ccc(F)cc2F)n1 | < 631 nM | < 251 nM | < 20000 nM | < 398 nM | < 126 nM
